According to PubChem BioAssay (NCI):
“And” between values parts separate entries of the source, which are not always exact repeats. Identical values can stand only once.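 How tested: cells in 96-well plates exposed to compound for 48 hours at five concentrations. GI50 is the concentration that inhibits growth by half. TGI marks complete inhibition of growth.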

What was measured:
Experiment in all cases: growth of human tumour cells (NCI), 48 h
UACC-257 melanoma = test system: UACC-257 melanoma
MDA-MB-231 breast = test system: MDA-MB-231 breast
MCF7 breast = test system: MCF7 breast
SNB-75 CNS = test system: SNB-75 CNS
MOLT-4 leukemia = test system: MOLT-4 leukemia
COLO 205 colon = test system: COLO 205 colon
SR leukemia = test system: SR leukemia
SF-539 CNS = test system: SF-539 CNS
CAKI-1 renal = test system: CAKI-1 renal
NCI-H23 lung = test system: NCI-H23 lung

| SMILES | GI50 (UACC-257 melanoma) | TGI (UACC-257 melanoma) | GI50 (MDA-MB-231 breast) | TGI (MDA-MB-231 breast) | GI50 (MCF7 breast) | TGI (MCF7 breast) | GI50 (SNB-75 CNS) | TGI (SNB-75 CNS) | GI50 (MOLT-4 leukemia) | TGI (MOLT-4 leukemia) [µM] | GI50 (COLO 205 colon) | TGI (COLO 205 colon) | GI50 (SR leukemia) | TGI (SR leukemia) [µM] | GI50 (SF-539 CNS) | TGI (SF-539 CNS) | GI50 (CAKI-1 renal) | TGI (CAKI-1 renal) | GI50 (NCI-H23 lung) | TGI (NCI-H23 lung) [µM] |
| --- | --- | --- | --- | --- | --- | --- | --- | --- | --- | --- | --- | --- | --- | --- | --- | --- | --- | --- | --- | --- |
| Clc1ccc2ncc(-c3cccc(NC4CNC4)n3)n2c1 | 11.5 µM | 51.4 µM | 6.48 µM | 75.1 µM | 4.64 µM | 52.3 µM | 10.6 µM | 27.8 µM | 5.03 µM | > 100 | 2.11 µM | 7.31 µM | 1.97 µM | > 100 | 2.92 µM | 17.3 µM | 4.51 µM | 84.1 µM | 7.66 µM | 36.3 |
| CN1CCN(c2ccc(NC(=O)c3cncnc3Nc3ccc(OCc4cccc(F)c4)c(Cl)c3)cc2)CC1 | 1.07 µM | 2.54 µM | 0.971 µM | 1.99 µM | 0.993 µM | 2.4 µM | 5.77 µM | 18.8 µM | 0.907 µM | 2.28 | 0.799 µM | 1.54 µM | 0.939 µM | 2.46 | 0.847 µM | 1.6 µM | 1.48 µM | 6.01 µM | 4.01 µM | > 50 |
| COc1cc(/C=C/C(=O)/C=C/c2cc3ccc(Cl)cc3n(Cc3ccccc3)c2=O)ccc1O | 2.06 µM | 4.83 µM | 2.93 µM | 16.6 µM | 0.418 µM | 12.3 µM | 2.52 µM | 7.42 µM | 1.89 µM | > 100 | 1.97 µM | 6.25 µM | 0.457 µM | > 100 | 1.62 µM | 3.53 µM | 2.08 µM | 4.54 µM | 1.79 µM | 4.65 |
| O=C(/C=C/C(Cl)(Cl)Cl)Nc1ccc(Cl)cc1 | – | 35.7 µM | – | 6.15 µM | – | 34.3 µM | – | 11.1 µM | – | 3.28 | – | 5.16 µM | – | 3.25 | – | 3.97 µM | – | 2.02 µM | – | 11.3 |
| Cc1ccc(-c2nc(N3CCNCC3)c3oc(-c4ccccc4)nc3n2)cc1 | > 100 µM | > 100 µM | 1.62 µM | 3.06 µM | 1.85 µM | 3.75 µM | 1.62 µM | 3.02 µM | 1.91 µM | 3.67 | 1.81 µM | 3.53 µM | 1.26 µM | 3.24 | 1.78 µM | 3.28 µM | 1.73 µM | 3.26 µM | 3.07 µM | 16.7 |
| CCOC(=O)/C(C#N)=C1\SS/C(=C(/C#N)C(=O)OCC)S1 | 18.3 µM | 34.8 µM | 14.9 µM | 29.6 µM | 18.3 µM | 41.1 µM | 22.4 µM | 57.5 µM | 10.8 µM | 57.8 | 0.861 µM | 2.67 µM | 3.59 µM | > 100 | 22.2 µM | 42.8 µM | 4.38 µM | 18.6 µM | 23.5 µM | 61.2 |
| CCCCN=C(N)c1ccc(N2CCCN(c3ccc(C(N)=NCCCC)cc3)CC2)cc1 | 10 µM | 66.8 µM | 27.7 µM | > 100 µM | 7.44 µM | > 100 µM | 6.29 µM | > 100 µM | 25.2 µM | > 100 | 6.82 µM | > 100 µM | 1.36 µM | 4.44 | 7.34 µM | > 50.1 µM | > 72.3 µM | > 100 µM | 5.67 µM | > 100 |
| ClCc1ccc(Cn2cnc3c(Cl)ncnc32)cc1 | 24.2 µM | 50 µM | 10.4 µM | 20.8 µM | 4.65 µM | 55.7 µM | > 42 µM | > 67 µM | 11.8 µM | > 56.2 | 13.7 µM | > 100 µM | 0.0902 µM | – | 10.9 µM | 29.2 µM | 2.26 µM | 8.78 µM | 6.99 µM | 17.3 |
| COc1ccc(Cn2cc3c(c2)-c2oncc2CC3)cc1OC | 1.69 µM | 22.3 µM | 0.255 µM | > 14.3 µM | 0.191 µM | > 41 µM | 0.123 µM | 0.761 µM | 0.274 µM | > 12.2 | 0.134 µM | 0.346 µM | 0.164 µM | – | 0.14 µM | 0.559 µM | 0.193 µM | > 31.3 µM | 0.2 µM | > 25.3 |
| Cc1ccc(NC(=O)Nc2c(Cl)cccc2Cl)cn1 | 71.4 µM | > 100 µM | 7.66 µM | > 100 µM | 7.29 µM | > 100 µM | 5.88 µM | > 100 µM | 6.38 µM | 32.4 | 3.61 µM | 24.3 µM | 3.89 µM | 22.7 | 5.24 µM | > 100 µM | 5.78 µM | > 100 µM | 26.1 µM | > 100 |
| O=Cc1c(-c2ccccc2)[nH]c2ccccc2c1=O | – | > 100 µM | – | > 100 µM | – | > 100 µM | – | 86.4 µM | – | > 100 | – | 82.3 µM | – | 37.4 | – | > 100 µM | – | > 100 µM | – | > 100 |
| Nc1cc(C(F)(F)F)c(-c2cc(N3CCOCC3)nc(N3CCOCC3)n2)cn1 | 0.59 µM and 0.417 µM | > 7.31 µM and 4.25 µM | 1.26 µM and 2.06 µM | > 8.48 µM and 11.9 µM | 0.228 µM and 0.257 µM | > 10 µM and 4.05 µM | 0.179 µM and 0.377 µM | 1.46 µM and 2.02 µM | 0.883 µM and 0.814 µM | > 100 | 0.629 µM and 1.25 µM | 2.8 µM and 3.42 µM | 0.397 µM and 0.41 µM | > 30 | 0.976 µM and 1.39 µM | 3.42 µM and 4.35 µM | 0.441 µM and 0.806 µM | 4.05 µM and > 24.3 µM | 1.17 µM and 1.28 µM | > 84.6 |
| COc1ccc(C(=O)O[C@H]2[C@H](O[C@H]3[C@@H](O)COC(O[C@H]4C[C@H]5[C@@H]6CC=C7C[C@@H](O)CC[C@]7(C)[C@H]6CC[C@]5(C)[C@H]4[C@H](C)C(=O)CCC(C)C)[C@@H]3OC(C)=O)OC[C@@H](O)[C@@H]2O)c(C)c1 (stereo partly drawn) | 0.0196 µM | 0.0621 µM | 0.146 µM | 18.1 µM | < 0.01 µM | 11 µM | < 0.01 µM | 13.2 µM | < 0.01 µM | 11.2 | 0.0178 µM | 0.133 µM | < 0.01 µM | > 100 | < 0.01 µM | < 0.01 µM | < 0.01 µM | 1.08 µM | 0.0574 µM | 15.4 |
